A short description of data set [1]: Drug concentration in […] mouse brain at 3 mg/kg, po measured after 30 mins. It is filed as ADME, organism-based. The settings on record: read-out: Ct.
The nature of data set [2]: Drug uptake in CD-1 mouse brain at 10 mg/kg, po via gavage measured after 5 mins by LC-MS/MS analysis. The conditions noted are these: read-out: Ct. It is filed as ADME, organism-based.
Data set [3] can be described thus: Drug uptake in CD-1 mouse plasma at 10 mg/kg, po via gavage measured after 5 mins by LC-MS/MS analysis. It counts as ADME, organism-based.
Another data set relates to HEK293. Nature of the data set: Induction of Nrf2/ARE transcriptional activation in human HEK293 cells measured after 24 hrs by Bright-Glo luciferase assay. It counts as cell-based. The settings on record: filed as activator.
The target in data set [4] is T1, Amyloid-beta precursor protein (Homo sapiens, UniProt P05067). The data set is described as follows: Inhibition of human AChE-induced amyloid beta (1 to 40) aggregation (unknown origin).
The species entered for another data set is Homo sapiens. The data set is described as follows: Selectivity ratio of Ki for sigma1 receptor (unknown origin) to Ki for sigma2 receptor (unknown origin).
The target of data set [5] is T1, Amyloid-beta precursor protein. Nature of the data set: Inhibition of self-induced amyloid beta (1 to 42) (unknown origin) aggregation at 25 uM incubated for 24 hrs by Thioflavin T-based fluorometric assay relative to control.
Data set [6] shares this target. Nature of the data set: Disaggregation of self-induced amyloid beta (1 to 42) (unknown origin) aggregation at 25 uM incubated for 24 hrs by Thioflavin T-based fluorometric assay relative to control.
The target of another data set is Cholinesterase (Equus caballus, UniProt P81908). The data set is described as follows: Inhibition of equine serum BChE incubated for 15 mins by Ellman's method. It is filed as cell-free. A general note: In Ellman's method for cholinesterases, released thiocholine reacts with DTNB.

We go through six compounds from ChEMBL document CHEMBL5107969, “Alzheimer's disease: Updated multi-targets therapeutics are in clinical and in progress” (Eur J Med Chem, 2022).

T1 sequence (P05067 whole entry): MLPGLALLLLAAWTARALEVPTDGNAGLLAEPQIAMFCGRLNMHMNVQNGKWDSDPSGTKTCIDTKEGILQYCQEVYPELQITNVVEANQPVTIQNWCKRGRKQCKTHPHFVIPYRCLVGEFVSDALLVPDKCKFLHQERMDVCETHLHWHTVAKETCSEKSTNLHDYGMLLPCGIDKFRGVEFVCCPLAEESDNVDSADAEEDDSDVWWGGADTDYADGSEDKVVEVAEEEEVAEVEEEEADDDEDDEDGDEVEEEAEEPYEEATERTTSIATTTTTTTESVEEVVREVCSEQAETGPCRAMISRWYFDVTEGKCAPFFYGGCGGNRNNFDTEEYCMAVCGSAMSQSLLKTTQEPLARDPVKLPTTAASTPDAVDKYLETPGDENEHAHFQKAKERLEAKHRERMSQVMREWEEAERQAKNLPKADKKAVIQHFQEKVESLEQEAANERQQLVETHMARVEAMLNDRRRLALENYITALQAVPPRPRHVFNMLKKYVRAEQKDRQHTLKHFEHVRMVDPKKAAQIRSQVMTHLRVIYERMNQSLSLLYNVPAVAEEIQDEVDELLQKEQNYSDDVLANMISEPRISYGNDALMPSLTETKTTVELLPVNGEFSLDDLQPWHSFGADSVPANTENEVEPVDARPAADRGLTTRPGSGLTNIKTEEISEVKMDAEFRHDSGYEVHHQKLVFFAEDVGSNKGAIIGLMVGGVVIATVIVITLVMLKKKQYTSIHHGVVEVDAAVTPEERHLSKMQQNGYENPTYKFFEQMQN
Chain of Cholinesterase (P81908 whole entry): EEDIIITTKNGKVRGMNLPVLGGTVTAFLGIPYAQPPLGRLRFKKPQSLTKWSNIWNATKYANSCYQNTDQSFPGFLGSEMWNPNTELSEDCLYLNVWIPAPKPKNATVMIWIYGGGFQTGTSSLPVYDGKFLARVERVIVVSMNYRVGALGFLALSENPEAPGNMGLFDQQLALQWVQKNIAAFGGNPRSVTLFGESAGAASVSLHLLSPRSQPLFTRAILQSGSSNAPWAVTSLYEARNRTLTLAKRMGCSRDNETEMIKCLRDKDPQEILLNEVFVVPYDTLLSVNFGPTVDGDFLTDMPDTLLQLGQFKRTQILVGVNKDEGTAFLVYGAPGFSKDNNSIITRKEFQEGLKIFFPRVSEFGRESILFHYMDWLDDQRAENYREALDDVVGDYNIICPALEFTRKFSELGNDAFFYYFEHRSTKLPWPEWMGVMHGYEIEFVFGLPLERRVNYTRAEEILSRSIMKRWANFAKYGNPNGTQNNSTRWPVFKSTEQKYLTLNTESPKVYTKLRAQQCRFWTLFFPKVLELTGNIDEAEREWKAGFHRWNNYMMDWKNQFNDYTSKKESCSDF

As to `NC1=NC(c2ccc(F)cc2)NC(=O)N1` (centres undefined), the concentration at 0.5 h in data set [1] came to 620 nM. As to `CN(C)c1ccc(O)c(CNc2cccc3ccc(CO)nc23)c1`, the concentration at 5 min in [2] was 14.3 ng/mL; in [3], 5.91 ng/mL. `CCCOc1ccc2[nH]cc(CCNC(=O)CN(CCc3c[nH]c4ccc(OCc5ccccc5)cc34)C(=O)CCCC[C@@H]3CCSS3)c2c1` had a CD with HEK293 of 28.1 µM.

In the case of `CCN(CCCCCCNC1=CC(=O)C(NCCCCCCN(CC)Cc2ccccc2OC)=CC1=O)Cc1ccccc1OC` [MEMOQUIN], it took 28.3 µM to reach half-maximal inhibition in [4] (IC50).

Turning to `O=c1ccoc2ccc(OCCCN3CCCCCC3)cc12`, the Ratio Ki in the data set listed under Homo sapiens came out at 28.

For `CCN(CCCCOc1ccc(/C=C/C(=O)N2CCc3ccccc3C2)cc1OC)Cc1ccccc1`, the inhibition (commonly the drop in the measured response relative to a control, in per cent) in data set [5] came out at 53.9%. In [6], this compound returned an Activity of 43.8%. The IC50 (in general, the concentration needed to halve the response being measured) at Cholinesterase came out at 0.0089 µM.
